Results published in ChEMBL document CHEMBL4680308, “Chemo-enzymatic synthesis of adenine substituted nicotinic acid adenine dinucleotide phosphate (NAADP) analogs” (Bioorg Med Chem, 2021).

What was measured:
[1] = Agonist activity at NAADP receptor in sea urchin egg homogenate assessed as increase in calcium release by fluo-3 based flurometric assay; type: tissue-based, Strongylocentrotus purpuratus
[2] = Desensitization of NAADP receptor in sea urchin egg homogenate assessed as ability to induce time dependent sub-threshold desensitization of calcium release pretreated for 7 mins followed by 1 uM NAADP added by measuring inhibition of calcium release by fluorometric assay; type: tissue-based, Strongylocentrotus purpuratus

Row | SMILES | EC50 [1] [nM] | IC50 [2] [nM]
1 | Nc1ncnc2c1ncn2[C@@H]1O[C@H](COP(=O)(O)OP(=O)(O)OC[C@H]2O[C@@H]([n+]3cccc(C(=O)[O-])c3)[C@H](O)[C@@H]2O)[C@@H](O)[C@H]1OP(=O)(O)O | 8 | 0.14
2 | C#Cc1nc2c(N)ncnc2n1[C@@H]1O[C@H](COP(=O)(O)OP(=O)(O)OC[C@H]2O[C@@H]([n+]3cccc(C(=O)[O-])c3)[C@H](O)[C@@H]2O)[C@@H](O)[C@H]1OP(=O)(O)O | 710 | 12.1
3 | C#Cc1nc2c(N)ncnc2n1[C@@H]1O[C@H](COP(=O)(O)OP(=O)(O)OC[C@H]2O[C@@H]([n+]3cc(N=[N+]=[N-])cc(C(=O)[O-])c3)[C@H](O)[C@@H]2O)[C@@H](O)[C@H]1OP(=O)(O)O | 2860 | 99
